Among the data in patent US20250034182A1, “PHOSPHOLIPID COMPOUNDS AND METHODS OF MAKING AND USING THE SAME” (priority 2021, published 2025) are CC50 and EC50 values, retold here.

Assay type in all cases: cell-based
Data set [1] can be described thus: RSV NHBE CC50 384 V2 (per Ex. U). Particulars: human.
The test system of data set [2] is Recombinant Respiratory Syncytial virus strain A2 containing the firefly luciferase reporter (RSV-Fluc) in NHBE cells. The data set is described as follows: RSV NHBE FLuc EC50 (Example I). The following applies: human respiratory syncytial virus, 72 h, read-out: RSV NHBE FLuc EC50 (nM) (per Ex. I). An excerpt:
Normal human bronchial epithelial (NHBE) cells are purchased from Lonza (Walkersville, MD Cat #CC-2540) and maintained in Bronchial Epithelial Cell Growth Medium (BEGM) (Lonza, Walkersville, MD, Cat #CC-3170) with all provided supplements in the BulletKit. Cells are passaged 2-3 times per week to maintain sub-confluent densities and are used for experiments at passages 2-4.
Recombinant Respiratory Syncytial virus strain A2 containing the firefly luciferase reporter between the P and M genes (RSV-Fluc, 6.3×10^6 TCID50/mL) is purchased from Viratree (Durham, NC, Cat #R^145).
NHBE cells (5×10^3/well) are seeded in 100 μL white wall/clear bottom 96-well plates (Corning) with culture medium and are incubated for 24 hours at 37° C. with 5% CO2. On the following day, three-fold serial dilutions of compounds prepared in DMSO are added to the wells using the HP D300e digital dispenser with normalization to the highest concentration of DMSO in all wells. The cells are then infected with RSV-Fluc diluted with BEGM media at an MOI of 0.1 for a final volume of 200 μL media/well. Uninfected and untreated wells are included as controls to determine compound efficacy against RSV-Fluc. Following incubation with compound and virus for three days at 37° C. with 5% CO2, 100 μL of culture supernatant is removed from each well and replaced with 100 μL of ONE-Glo luciferase reagent (Promega, Madison, WI, Cat #E6110). The plates are gently mixed by rocking for 10 minutes at 21° C. and luminescence signal is measured using an Envision plate reader (PerkinElmer). Values are normalized to the uninfected and infected DMSO controls (0% and 100% infection, respectively). Non-linear regression analysis is applied to determine the compound concentration at which 50% luminescence signal is reduced (EC50) using the XLfit4 add-in for MICROSOFT®EXCEL®. All experiments are performed in duplicate with two technical repeats each.

In data set [3] the test system is Respiratory syncytial virus recombinant with luciferase (RSV-Luc5) in NHBE cells. The data set is described as follows: NHBE RSV-Luc5 384-well assay (EC50 RSVFLUC NHBE-384, Example U). Particulars: human respiratory syncytial virus, 72 h, read-out: RSV FLuc NHBE 384 EC50 (v2) (nM) (per Ex. U). Here is the method:
Normal Human Bronchial Epithelial (NHBE) cells were purchased from Lonza (Walkersville, MD Cat #CC2540) and maintained in BEGM Bronchial Epithelial Cell (Growth Medium BulletKit (Lonza CC-3170).
Cells were thawed, expanded, and were used for experiments at passage 2. Respiratory syncytial virus recombinant with luciferase (RSV-Luc5) (≥1×10^7 Infectious Units/ml (IU/ml) determined by TCID50) was purchased from Microbiologics (Saint Cloud, MN). Viral replication was determined in NHBE cells in the following manner.
(§1) Compounds are prepared in 100% DMSO in 384-well polypropylene plates (Greiner, Monroe, NC, Cat #784201) with 8 compounds per plate in grouped replicates of 4 at 10 serially diluted concentrations (1:3). The serially diluted compounds were transferred to low dead volume Echo plates (Labcyte, Sunnyvale, CA, Cat #LP-0200).
The test compounds were spotted to 384-well assay plates (Greiner, Monroe, NC, Cat #781091) at 200 nL per well. NHBE cells were harvested and suspended in BEGM Bronchial Epithelial Cell Growth Medium BulletKit and seeded to the pre-spotted assay plates at 5,000 cells per well in 30 μL. RSV-Luc5 virus was diluted in BEGM Bronchial Epithelial Cell Growth Medium BulletKit at 500,000 Infectious Units (IU) per mL and 10 μL per well was added to the assay plates containing cells and compounds, for an MOI of 1. The assay plates were incubated for 3 days at 37° C. and 5% CO2. At the end of incubation, One-Glo reagent (Promega, Madison, WI, Cat #E6120) was prepared. The assay plates and One-Glo reagent were equilibrated to room temperature for at least 15 minutes. 40 μL per well of One-Glo reagent was added and the plates were incubated at room temperature for 15 minutes before reading the luminescence signal on an EnVision multimode plate reader (Perkin Elmer, Waltham, MA). Remdesivir was used as positive control and DMSO was used as negative control. Values were normalized to the positive and negative controls (as 0% and 100% replication, respectively) and data was fitted using non-linear regression analysis by Gilead's dose response tool. The EC50 value for each compound was defined as the concentration reducing the viral replication by 50%.

The subject of data set [4] is Human Rhinovirus 14 (HRV14) in H1-HeLa cells. The data set is described as follows: H1-HeLa HRV-CTG EC50, HRV14 (Example Z). Particulars: Rhinovirus B, HRV14, 96 h, MOI 1.0, 4 days, Celltiter-Glo, read-out: HRV14 HELA EC50 (nM) (per Ex. Z). An excerpt:
(§2) H1-Hela cell line (ATCC, Manassas, VA, Cat #CRL-1958) was maintained in Dulbecco's […] (DMEM) (Corning, New York, NY, Cat #15-018CM) supplemented with 10% fetal bovine serum (FBS) (Hyclone, Logan, UT, Cat #SH30071-03), and 1× Penicillin-Streptomycin-L-Glutamine (Coming, New York, NY, Cat #30-009-C1). Cells were passaged 2 times per week to maintain sub-confluent densities and were used for experiments at passage 5-30. The Human Rhinovirus 1B (HRV1B) (ATCC, Manassas, VA, Cat #VR-1645), Human Rhinovirus 14 (HRV14) (ATCC, Manassas, VA, Cat #VR-284), and Human Rhinovirus 16 (HRV16) (ATCC, Manassas, VA, Cat #BR-283) was obtained through ATCC. Viral infection was monitored by determining viability of H1-HeLa cells as described below.
(§3) Test molecules are prepared in 100% DMSO in 384-well polypropylene plates (Greiner, Monroe, NC, Cat #784201) with 8 compounds per plate in grouped replicates of 4 at 10 serially diluted concentrations (1:3). The serially diluted compounds were transferred to low dead volume Echo plates (Labcyte, Sunnyvale, CA, Cat #LP-0200).
(§4) The test compounds were spotted to 384-well assay plates (Greiner, Monroe, NC, Cat #781091) at 200 nL per well using an Echo acoustic dispenser (Labcyte, Sunnyvale, CA). H1-HeLa cells were harvested and suspended in DMEM (supplemented with 2% FBS and 1× Penicillin-Streptomycin-L-Glutamine) and seeded to the pre-spotted assay plates at 5,000 cells per well in 30 μL. HRV1B, HRV14, and HRV16 was diluted in DMEM (supplemented with 2% FBS and 1× Penicillin-Streptomycin-L-Glutamine) at 97.1 million Infectious Units (IU) per mL, 151 million IU per mL and 221 million IU per mL respectively. 10 μL of virus per well was added to the assay plates containing cells and compounds, for an MOI of 0.5, 1.0, and 0.25 respectively. The assay plates were incubated for 4 days at 37° C. and 5% CO2. At the end of incubation, Celltiter-Glo (Promega, Madison, WI, Cat #G7573) was prepared. The assay plates and Celltiter-Glo reagent were equilibrated to room temperature for at least 15 minutes. 40 μL per well of Celltiter-Glo reagent was added and the plates were incubated at room temperature for 15 minutes before reading the luminescence signal on an EnVision multimode plate reader (Perkin Elmer, Waltham, MA). Rupintrivir was used as positive control and DMSO was used as negative control. Values were normalized to the positive and negative controls (as 0% and 100% replication, respectively) and data was fitted using non-linear regression analysis by Gilead's dose response tool. The EC50 value for each compound was defined as the concentration reducing viral replication by 50%.

Data set [5] can be described thus: RSV HEP2-CC50-384-V2 (per Ex. V). Particulars: human.
Data set [6] has as its system Human Rhinovirus 16 (HRV16) in H1-HeLa cells. The data set is described as follows: H1-HeLa HRV-CTG EC50, HRV16 (Example Z). Particulars: Rhinovirus A, HRV16, 96 h, MOI 0.25, 4 days, Celltiter-Glo, read-out: HRV 16 HELA EC50 (nM) (per Ex. Z).
From the text: as §2, §3, §4
For orientation: In ATP-based viability assays light output follows the ATP content of the culture.

Data set [7] deals with Respiratory syncytial virus recombinant with luciferase (RSV-Luc5) in HEp-2 cells. The data set is described as follows: HEp-2 RSV-Luc5 384-well assay (EC50 RSVFLUC Hep2-384 v2, Example V). Particulars: human respiratory syncytial virus, HEp-2, 72 h, read-out: RSV Hep-2 FLuc EC50 (v2) (nM) (per Ex. V).
From the text: HEp-2 cell line was purchased from ATCC (Manassas, VA Cat #CCL-23) and maintained in Dulbecco's […] (DMEM) (Corning, New York, NY, Cat #15-018CM) supplemented with 10% fetal bovine serum (FBS) (Hyclone, Logan, UT, Cat #SH30071-03) and 1× Penicillin-Streptonycin-L-Glutamine (Corning, New York, NY, Cat #30-009-CI). Cells were passaged 2 times per week to maintain sub-confluent densities and were used for experiments at passage 5-20. Respiratory syncytial virus recombinant with luciferase (RSV-Luc5) (≥1×107 TCID50/ml) was purchased from Microbiologics (Saint Cloud, MN). Viral replication was determined in HEp-2 cells in the following manner.
as §1
The test compounds were spotted to 384-well assay plates (Greiner, Monroe, NC, Cat #781091) at 200 nL per well. HEp-2 cells were harvested and suspended in DMEM (supplemented with 10% FBS and 1× Penicillin-Streptomycin-L-Glutamine) and seeded to the pre-spotted assay plates at 4,000 cells per well in 30 μL. RSV-Luc5 viruses were diluted in DMEM (supplemented with 10% FBS and 1× Penicillin-Streptomycin-L-Glucamine) at 200,000 Infectious Units (IU) per mL and 10 μL per well was added to the assay plates containing cells and compounds, for an MOI=0.5. The assay plates were incubated for 3 days at 37° C. and 5% CO2. At the end of incubation, One-Glo reagent (Promega, Madison, WI, Cat #E6120) was prepared. The assay plates and One-Glo reagent were equilibrated to room temperature for at least 15 minutes. 40 μL per well of One-Glo reagent was added and the plates were incubated at room temp for 15 minutes before reading the luminescence signal on an EnVision multimode plate reader (Perkin Elmer, Waltham, MA). Remdesivir was used as positive control and DMSO was used as negative control. Values were normalized to the positive and negative controls (as 0% and 100% replication, respectively) and data was fitted using non-linear regression analysis by Gilead's dose response tool. The EC50 value for each compound was then determined as the concentration reducing the viral replication by 50%.

Data set [8] deals with Human Rhinovirus 1B (HRV1B) in H1-HeLa cells. The data set is described as follows: H1-HeLa HRV-CTG EC50, HRV1B (Example Z). The following applies: Rhinovirus A, 96 h, MOI 0.5, 4 days, Celltiter-Glo, read-out: HRV 1B HELA EC50 (nM) (per Ex. Z).
From the text: as §2, §3, §4

In general, CC50 refers to the concentration that lowers cell viability or growth by half. Read a low CC50 as greater toxicity to the cells. As a reminder, the EC50 is the concentration needed to bring the measured effect to its halfway point. `CCCCCCCCCCCCCCCCCCC[C@@H](COP(=O)(O)OC[C@@]1(C#N)O[C@@H](c2ccc3c(N)ncnn23)[C@H](O)[C@@H]1O)OCc1cc(F)cc(C#N)c1` [Compound 31, ((2R,3S,4R)-5-(4-aminopyrrolo[2,1-f][1,2,4]triazin-7-yl)-2-cyano-3,4-dihydroxytetrahydrofuran-2-yl)methyl ((S)-2-((3-cyano-5-fluorobenzyl)oxy)henicosyl) hydrogen phosphate]: the CC50 at 3 days in data set [1] was 1900 nM. The EC50 in data set [2] worked out at 229 nM; in data set [3], 134 nM.
For `CCCCCCCCCCCCCCCOC[C@H](COP(=O)(O)OC[C@@]1(C#N)O[C@@H](c2ccc3c(N)ncnn23)[C@H](O)[C@@H]1O)OCc1cc(F)cc(C#N)c1` [Compound 99, ((2R,3S,4R,5S)-5-(4-aminopyrrolo[2,1-f][1,2,4]triazin-7-yl)-2-cyano-3,4-dihydroxytetrahydrofuran-2-yl)methyl ((R)-2-((3-cyano-5-fluorobenzyl)oxy)-3-(pentadecyloxy)propyl) hydrogen phosphate], the EC50 is 37 nM in data set [4]; 33 nM in data set [6]; 166 nM in data set [7]; 19 nM in data set [8]; 47 nM in data set [3]. The CC50 at 3 days in data set [5] was 42300 nM; in data set [1] it was 1140 nM.
